From PMC3462495 (2012) come the findings set out here.

SMILES strings stand for the structures.

For this assay, the target named is p90 ribosomal S6 kinase 2 (RSK2), N-terminal kinase domain (mRSK2NTKD) (Mus musculus, UniProt P18654). Nature of the assay: ITC. It counts as binding.
Sequence of p90 ribosomal S6 kinase 2 (RSK2), N-terminal kinase domain (mRSK2NTKD) (P18654 45-346): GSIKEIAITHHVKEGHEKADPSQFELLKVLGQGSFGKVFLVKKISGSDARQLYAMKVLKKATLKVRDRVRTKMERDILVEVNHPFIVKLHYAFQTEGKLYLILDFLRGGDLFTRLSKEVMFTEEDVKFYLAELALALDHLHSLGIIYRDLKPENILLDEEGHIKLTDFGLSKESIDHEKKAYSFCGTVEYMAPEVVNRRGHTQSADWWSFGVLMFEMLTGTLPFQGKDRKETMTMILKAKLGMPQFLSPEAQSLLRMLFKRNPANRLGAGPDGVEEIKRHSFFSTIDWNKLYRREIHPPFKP

The term Kd denotes the free concentration of one partner at which half of the binding sites on the other are occupied at equilibrium, for simple one-to-one binding. The low end stands for a tighter complex, the high end for a looser complex. `Nc1ncnc2c1ncn2[C@@H]1O[C@H](COP(=O)(O)OP(=O)(O)NP(=O)(O)O)[C@@H](O)[C@H]1O` [AMP-PNP]: the Kd worked out at 50 µM.
